# In patent US9119398B2, “Plant growth regulating compounds” (Syngenta Participations AG, priority 2012, dated 2015):
# How the values were obtained:
# [1] = tested on: Orobanche cumana Wallr. seeds; test: Germination of preconditioned Orobanche cumana seeds on glass fiber filter paper in petri dishes; format: in vivo; settings: mean, N = 5 × 100 seeds, seed lot IN153
# Procedure: The effect of compounds of Formula (I) on germination of Orobanche cumana Wallr. seeds was evaluated on glass fiber filter paper (GFFP) in petri dishes. Seeds were preconditioned at moisture and suitable temperature to become responsive to the specific chemical germination stimulants.
# Test compounds were dissolved in DMSO (10 000 mg l^−1) and stored at room temperature in a desiccators with desiccants. The stock solutions were dissolved with deionised water to the appropriate final test concentration.
# Seeds of O. cumana race ‘F’ (IN153) were collected from a sunflower field in Manzanilla (Seville, Spain) in 2006 and stored at room temperature. To separate seeds from heavy organic debris, a modified sucrose floatation technique as described by Hartman & Tanimonure (Plant Disease (1991), 75, p. 494) was applied. Seeds were filled into a separation funnel and stirred in water. When seeds floated to the surface, the water fraction containing heavy debris was discarded. Seeds were re-suspended in 2.5M sucrose solution (specific gravity of 1.20) and heavy debris was allowed to settle down for 60 min After removing debris, seeds were disinfected in 1% sodium hypochlorite solution and 0.025% (v/v) Tween 20 for 2 min. The seeds were decanted onto two layers of cheesecloth, rinsed with sterile deionised water and re-suspended in sterile deionised water. Two ml of the seed suspension containing approximately 150-400 seeds were spread evenly on two layers of sterile glass fiber filter paper disc ([…]) in Petri dishes (Ø9 cm). After wetting the discs with 3 ml sterile deionised water, petri dishes were sealed with parafilm. Seeds were incubated for 10 days at 20° C. in the dark for seed conditioning. The upper disc with conditioned seeds was briefly dried, transferred to a petri dish lined with a dry GFFP disc, and wetted with 6 ml of the appropriate test solution. The compounds of Formula (I) were tested at concentrations of 0.001, 0.01, 0.1, or 1 mg l^−. The strigolactone analogue GR24 was included as positive control and 0.01% DMSO as negative control. All treatments were tested in five replicates. Seeds were re-incubated at 20° C. in the dark and examined for germination 10 days later. The radicles of germinated seeds were stained for 5 min with blue ink (MIGROS, Switzerland) in 5% acetic acid according to Long et al. (Seed Science Research (2008), 18, p. 125). After staining, seeds were photographed using a camera stand mounted with a digital SLR camera (Canon EOS 5D). Germination of 100 seeds per replicate was evaluated on digital images. Seeds were considered germinated when the radicle protruded from the seed coat.
# [2] = tested on: Brassica oleracea cv Botrytis (temperate cauliflower) seeds; test: Paper germination test, temperate cauliflower seeds, 10° C. in the light; format: in vivo; settings: 25 μM, sets A and B separate experiments
# Procedure: The effect of compounds of Formula (I) on the germination of Brassica oleracea cv Botrytis or common cauliflower was tested on two types of cauliflowers: temperate types and tropical types. These two types were chosen because they display different sensitivities to the light conditions and temperature during germination. Germination of a sensitive temperate type is inhibited by light at 10° C. while for the tropical types germination at 20° is stimulated by the presence of light.
# The temperate seed batches tested are part of commercially produced seed batches of various varieties which are known to be sensitive to light at 10° C. These seeds were harvested and cleaned according standard commercial procedures. Ready seed batches were used (Ready indicates the processing level of these seeds: they have been cleaned and sized but received no other treatments). The tropical seed batches tested are part of seed batches produced as basic seed (for maintenance of the parental line) and were processed accordingly.
# Germination was assessed using the standard paper germination test for Brassica: Fifty seeds were placed on blue germination paper, which was moistened with the appropriate solutions, in closed oblong germination boxes. Each condition was tested in duplo. Germination boxes were placed in controlled germination cabinets with the appropriate temperature and light conditions. Germination of seeds was counted at regular intervals. Seeds were considered to be germinated when the radical had protruded the testa and endosperm (radical size approximately 1 mm)
# Test compounds were dissolved in DMSO at a concentration of 50 mM and stored at −20° C. The strigolactone analogue GR24 (commercially available as a racemic mixture of 2 diastereoisomers, referred to as “synthetic strigolactone GR-24” and first prepared by Johnson A. W. & all, Journal of the Chemical Society, Perkin Transactions 1, 1981, page 1734-1743) was included as positive control. Germination solutions were prepared by diluting the stock solutions with demineralized water till 25 μM. As control solutions demineralized water and a 0.05% v/v DMSO solution were used.
# [3] = Table B2, concentration 0.01 mg 1^−1, DMSO control 2.4% germination
# [4] = Table B2, concentration 0.1 mg 1^−1, DMSO control 2.4% germination
# [5] = Table B2, concentration 1 mg 1^−1, DMSO control 2.4% germination
# [6] = temperate cauliflower Spacestar seed batch 11B313 (cold-sensitive)
# [7] = temperate cauliflower Spacestar seed batch 11B314 (not cold sensitive)
# [8] = Table B3, concentration 0.001 mg 1^−1, DMSO control 0% germination
# [9] = Table B3, concentration 0.01 mg 1^−1, DMSO control 0% germination
# [10] = Table B3, concentration 0.1 mg 1^−1, DMSO control 0% germination
# [11] = Table B1, concentration 0.001 mg 1^−1, DMSO control 0.4% germination
# [12] = Table B1, concentration 0.1 mg 1^−1, DMSO control 0.4% germination
# [13] = Table B1, concentration 1 mg 1^−1, DMSO control 0.4% germination
smiles,measurement,setting,value
"CC1=CC(O/C=C2\CCN(c3ccccc3)C2=O)OC1=O (stereo not shown) [I-3, (3E)-3-[(4-methyl-5-oxo-2H-furan-2-yl)oxymethylene]-1-phenyl-pyrrolidin-2-one]",Germination (%),[1]; [3],0%
same,Germination (%),[1]; [4],1.6%
same,Germination (%),[1]; [5],19.2%
"CC1=CC(O/C=C2\CC(C)N(c3ccccc3)C2=O)OC1=O (stereo not shown) [I-4, (3E)-5-methyl-3-[(4-methyl-5-oxo-2H-furan-2-yl)oxymethylene]-1-phenyl-pyrrolidin-2-one]",Germination (%),[1]; [3],0.6%
same,Germination (%),[1]; [4],1%
same,Germination (%),[1]; [5],18.2%
"CC1=CC(O/C=C2\CCCN(c3ccccc3)C2=O)OC1=O (stereo not shown) [I-5, (3E)-3-[(4-methyl-5-oxo-2H-furan-2-yl)oxymethylene]-1-phenyl-piperidin-2-one]",Germination (%),[1]; [3],1%
same,Germination (%),[1]; [4],0%
same,Germination (%),[1]; [5],42.2%
"CC1=CC(O/C=C2\CC(=O)N(C)C2=O)OC1=O (stereo not shown) [I-7, (3E)-1-methyl-3-[(4-methyl-5-oxo-2H-furan-2-yl)oxymethylene]pyrrolidine-2,5-dione]",Germination (%),[1]; [3],1%
same,Germination (%),[1]; [4],1.4%
same,Germination (%),[1]; [5],17.2%
"CC1=C[C@H](O/C=C2/C(=O)N[C@@H]3C=CC[C@H]23)OC1=O [Ia-1′, (3E,3aR,6aR)-3-[[(2R)-4-methyl-5-oxo-2H-furan-2-yl]oxymethylene]-1,3a,4,6a-tetrahydrocyclopenta[b]pyrrol-2-one]",Germination (%),"[1]; Table B6, concentration 0.001 mg 1^−1, DMSO control 2.4% germination",68.0%
same,Germination (%),"[1]; Table B6, concentration 0.1 mg 1^−1, DMSO control 2.4% germination",55.3%
same,Germination (%),"[1]; Table B6, concentration 1 mg 1^−1, DMSO control 2.4% germination",54.8%
"CC1=CC(O/C=C2/C(=O)NC3CCCC23)OC1=O (stereo not shown) [Ia-2, (3E)-3-[(4-methyl-5-oxo-2H-furan-2-yl)oxymethylene]-1,3a,4,5,6,6a-hexahydrocyclopenta[b]pyrrol-2-one]",Germination (%),[1]; [3],75.4%
same,Germination (%),[1]; [4],65.4%
same,Germination (%),[1]; [5],83.4%
"CC1=CC(O/C=C2\CCNC2=O)OC1=O (stereo not shown) [Ia-8, (3E)-3-[(4-methyl-5-oxo-2H-furan-2-yl)oxymethylene]pyrrolidin-2-one]","Gmax (%), total germination as percentage of sown seeds",[2]; [6],77.0%
same,"stimulation (%), extra germination compared to the DMSO treatment, as percentage of the germination in the DMSO treatment",[2]; [6],42.6%
same,"Gmax (%), total germination as percentage of sown seeds",[2]; [7],93.0%
same,"stimulation (%), extra germination compared to the DMSO treatment, as percentage of the germination in the DMSO treatment",[2]; [7],8.1%
"CC1=CC(O/C=C2\CCC(c3ccccc3)NC2=O)OC1=O (stereo not shown) [Ia-12, (3E)-3-[(4-methyl-5-oxo-2H-furan-2-yl)oxymethylene]-6-phenyl-piperidin-2-one]",Germination (%),[1]; [8],93.3%
same,Germination (%),[1]; [9],86.8%
same,Germination (%),[1]; [10],92.4%
"CC1=CC(O/C=C2/C(=O)N(C(=O)OC(C)(C)C)C3C=CCC23)OC1=O (stereo not shown) [Ib-1, tert-butyl (3E)-3-[(4-methyl-5-oxo-2H-furan-2-yl)oxymethylene]-2-oxo-4,6a-dihydro-3aH-cyclopenta[b]pyrrole-1-carboxylate]",Germination (%),[1]; [11],0%
same,Germination (%),[1]; [12],25.8%
same,Germination (%),[1]; [13],92.6%
"CC1=CC(O/C=C2/C(=O)N(C(=O)OC(C)(C)C)C3CCCC23)OC1=O (stereo not shown) [Ib-2, tert-butyl (3E)-3-[(4-methyl-5-oxo-2H-furan-2-yl)oxymethylene]-2-oxo-4,5,6,6a-tetrahydro-3aH-cyclopenta[b]pyrrole-1-carboxylate]",Germination (%),[1]; [11],0%
same,Germination (%),[1]; [12],18.2%
same,Germination (%),[1]; [13],54.8%
"CC1=CC(O/C=C2\CC(C)N(C(=O)OC(C)(C)C)C2=O)OC1=O (stereo not shown) [Ib-6, tert-butyl (3E)-5-methyl-3-[(4-methyl-5-oxo-2H-furan-2-yl)oxymethylene]-2-oxo-pyrrolidine-1-carboxylate]",Germination (%),[1]; [11],0.4%
same,Germination (%),[1]; [12],1.8%
same,Germination (%),[1]; [13],5.6%
"CC1=CC(O/C=C2\CCN(C(=O)OC(C)(C)C)C2=O)OC1=O (stereo not shown) [Ib-8, tert-butyl (3E)-3-[(4-methyl-5-oxo-2H-furan-2-yl)oxymethylene]-2-oxo-pyrrolidine-1-carboxylate]",Germination (%),[1]; [3],0.2%
same,Germination (%),[1]; [4],2.8%
same,Germination (%),[1]; [5],1.4%
"CC1=CC(O/C=C2\CC(c3ccccc3)N(C(=O)OC(C)(C)C)C2=O)OC1=O (stereo not shown) [Ib-10, tert-butyl (3E)-3-[(4-methyl-5-oxo-2H-furan-2-yl)oxymethylene]-2-oxo-5-phenyl-pyrrolidine-1-carboxylate]",Germination (%),[1]; [8],72.8%
same,Germination (%),[1]; [9],72.4%
same,Germination (%),[1]; [10],71.8%
"CC1=CC(O/C=C2\CCC(c3ccccc3)N(C(=O)OC(C)(C)C)C2=O)OC1=O (stereo not shown) [Ib-12, tert-butyl (3E)-3-[(4-methyl-5-oxo-2H-furan-2-yl)oxymethylene]-2-oxo-6-phenyl-piperidine-1-carboxylate]",Germination (%),[1]; [8],91%
same,Germination (%),[1]; [9],89%
same,Germination (%),[1]; [10],90.2%
"CC1=CC(O/C=C2\CCCCN(C(=O)OC(C)(C)C)C2=O)OC1=O (stereo not shown) [Ib-13, tert-butyl (3E)-3-[(4-methyl-5-oxo-2H-furan-2-yl)oxymethylene]-2-oxo-azepane-1-carboxylate]",Germination (%),"[1]; Concentration 0.01 mg l^-1, 10 days at 20° C. in the dark",48%
same,Germination (%),"[1]; Concentration 0.01 mg l^-1 as printed, 10 days at 20° C. in the dark",83%
same,Germination (%),"[1]; Concentration 1 mg l^-1, 10 days at 20° C. in the dark",90.8%
